From patent US20240400545A1, “COMPOUND SERVING AS KAT6 INHIBITOR” (Hangzhou Innogate Pharma Co., Ltd., priority 2021, published 2024)
Where two headings read alike, the source gives them in different places.

Columns and labels:
[1] = molecular target: KAT6A enzyme (catalytic domain) (Homo sapiens (Human), UniProt Q92794); assay: Inhibition of KAT6A enzyme activity ([3H]-acetyl-CoA / H3 (1-21) peptide, Flashplate); format: biochemical; settings: for IC50: KAT6A catalytic domain, [3H]-acetyl-CoA, substrate peptide H3 (1-21); for inhibition at 0.011 µM: KAT6A, compound concentration 11 nM, read-out: Inhibition % of compounds at the concentration of 11 nM
Sequence of KAT6A enzyme (catalytic domain) (Q92794 504-778): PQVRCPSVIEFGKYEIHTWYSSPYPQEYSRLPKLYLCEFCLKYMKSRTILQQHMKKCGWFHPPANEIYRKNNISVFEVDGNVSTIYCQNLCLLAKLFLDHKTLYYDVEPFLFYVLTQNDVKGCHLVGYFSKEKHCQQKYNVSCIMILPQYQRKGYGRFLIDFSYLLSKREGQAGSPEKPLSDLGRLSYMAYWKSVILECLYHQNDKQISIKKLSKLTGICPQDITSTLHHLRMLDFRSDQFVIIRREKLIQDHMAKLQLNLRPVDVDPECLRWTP
Description: No. […] The plate was incubated at room temperature for 1 hour. 10 μL of the stop solution was added to terminate the reaction. 25 μL of the reaction solution was transferred to a Flashplate (Perkin Elmer, Cat. No. […]) and incubated at room temperature for 1 hour. The plate was read using Microbeta. The inhibition rate of the compounds was calculated using the formula of Excel: inhibition %=(Max-Signal)/(Max-Min)*100%. Where max is the value of the DMSO control, min is the value of the non-enzymatic control, and signal is the value of the well where the compound was tested. The curve was fitted using XLFit software and IC50 was calculated.

[2] = Pharmacokinetic study in rats (intragastrical administration); settings: plasma
Description: (§1) All measurement data were collected and processed by Masslynx V4.1 software, and the data were calculated and processed by Microsoft Excel. The statistical moment method of WinNonLin 8.0 software was used to calculate the pharmacokinetic parameters. These mainly include kinetic parameters Tmax, T1/2, Cmax, AUC0-24 h etc. Column: ACQUITY UPLC BEH C18 (2.1 mm×50 mm, 1.7 μm); column temperature 40° C.; mobile phase A is water (0.1% formic acid), mobile phase B is acetonitrile, flow rate is 0.350 mL/min, gradient elution is adopted, the elution gradient is 0.50 min: 10% B; 1.50 min: 90% B; 2.50 min: 90% B; 2.51 min: 10% B; 3.50 min: stop. Injection volume: 1 μL.
(§2) Animals: 3 male SD rats with a weight range of 200-220 g were purchased and kept in the laboratory of the Experimental Animal Center for 2 days and then used. They were fasted for 12 hours predose and 4 hours after dosing. Drinking water was free during the test. After the rats were gavage, blood samples were taken according to the established time point.
(§3) Solvent: 0.4% ethanol+0.4% Tween80+99.2% (0.5% methylcellulose M450). Preparation of the solution for intragastrical administration: the compounds were accurately weighed and added to the solvent, and ultrasound was used at room temperature for 5 minutes to completely dissolve the drug, and a 0.3 mg/mL medicinal solution was prepared.
(§4) A single administration was also used to study the pharmacokinetics of the drug sample in rats.
(§5) After intragastrical administration, blood was taken from the orbit at 0.25, 0.5, 1, 2, 4, 8, 10 and 24 hours. Then 50 μL of the plasma sample was taken and added 200 μL of acetonitrile (including internal standard control verapamil 2 ng/mL), vortexed for 3 min and centrifuged at 20000 rcf, 4° C. for 10 min. The supernatant plasma was used for LC-MS/MS analysis.
(§6) The compounds were accurately weighed to prepare different concentrations, and quantitative analysis on mass spectrometry was performed to establish a standard curve, and then the concentration of the above-mentioned compound in the plasma was tested to obtain its concentration at different time points. All measurement data were collected and processed by relevant software, and the statistical moment method was used to calculate the pharmacokinetic parameters (mainly including kinetic parameters Tmax, T1/2, Cmax, AUC0-24 h etc).

[3] = rat, in vivo, po, 3 mg/kg
Description: as §1, §2, §3, §4, §5, §6

[4] = male SD rats, intragastrical, 1.5 mg/Kg

AUC(0-t) ([2]; male, SD, rat, po, 3 mg/kg) [ng·h/mL] | Cmax ([2]; male, SD, rat, po, 3 mg/kg) [ng/mL] | Tmax ([2]; male, SD, rat, po, 3 mg/kg) [h] | half-life ([2]; male, SD, rat, po, 3 mg/kg) [h] | SMILES | IC50 [1] [nM] | other results
82200 | 4830 | 2 | 24.6 | COc1cc(C#CC2CC2)ccc1S(=O)(=O)Nc1noc2cc(Cn3cccn3)cc(OC)c12 [Compound 12] | – | –
45300 | 2790 | 2.67 | 14.4 | CC#Cc1ccc(S(=O)(=O)Nc2noc3cc(Cn4cccn4)cc(OC)c23)c(OC)c1 [Compound 16] | – | –

Second part, the compound before the results:

SMILES | AUC(0-t) ([2]; male, SD, rat, po, 3 mg/kg) [ng·h/mL] | Cmax ([2]; male, SD, rat, po, 3 mg/kg) [ng/mL] | Tmax ([2]; male, SD, rat, po, 3 mg/kg) [h] | half-life ([2]; male, SD, rat, po, 3 mg/kg) [h] | IC50 [1] [nM] | other results
COc1ccc(OC2CCC2)cc1S(=O)(=O)Nc1noc2cc(Cn3cccn3)cc(OC)c12 [Compound 1] | – | – | – | – | < 5 | AUC0-24h [2, 4]: 4481.07 ng·h/mL; Cmax [2, 4]: 392.76 ng/mL; T1/2 [2, 4]: 2.66 h; Tmax [2, 4]: 3.00 h
COc1ccc(N2CCC2)cc1S(=O)(=O)Nc1noc2cc(Cn3cccn3)cc(OC)c12 [Compound 2] | – | – | – | – | < 10 | –
C#Cc1cc(OC)c(S(=O)(=O)Nc2noc3cc(Cn4cccn4)cc(OC)c23)c(OC)c1 [Compound 4] | – | – | – | – | < 5 | AUC0-24h [3]: 109958.71 ng·h/mL; Cmax [3]: 6737.13 ng/mL; T1/2 [3]: 8.04 h; Tmax [3]: 9.33 h
C#Cc1ccc(S(=O)(=O)Nc2noc3cc(Cn4cccn4)cc(OC)c23)c(OC)c1 [Compound 11] | – | – | – | – | – | AUC(0-t) ([2]; male, SD, rat, po, 2 mg/kg): 53700 ng·h/mL; Cmax ([2]; male, SD, rat, po, 2 mg/kg): 6380 ng/mL; Tmax ([2]; male, SD, rat, po, 2 mg/kg): 1.33 h; half-life ([2]; male, SD, rat, po, 2 mg/kg): 5.29 h
COc1cc(C#CC2COC2)cc(OC)c1S(=O)(=O)Nc1noc2cc(Cn3cccn3)cc(OC)c12 [Compound 14] | 5960 | 428 | 3.33 | 6.62 | – | inhibition at 0.011 µM [1]: 67%
COc1cc(C#CC2CC(F)(F)C2)cc(OC)c1S(=O)(=O)Nc1noc2cc(Cn3cccn3)cc(OC)c12 [Compound 15] | 32500 | 2120 | 3.33 | 7.85 | – | –
COc1cc(N2CCC2)ccc1S(=O)(=O)Nc1noc2cc(Cn3cccn3)cc(OC)c12 [Compound 17] | 3120 | 229 | 2.67 | 3.17 | – | inhibition at 0.011 µM [1]: 75%
